Assay: mn = molality of the nth substance listed, in mol/kg
Details: 101 kPa, Liquid

[Br-].[K+] [potassium bromide] + O
Details	mass density [kg/m3]	speed of sound [m/s]	viscosity [mPa·s]
293.15 K, m1 = 0.2	1015.19	1487	0.985
293.15 K, m1 = 0.3	1023.34	1488.9	0.975
293.15 K, m1 = 0.4	1031.61	1490.9	0.97
293.15 K, m1 = 0.5	1039.7	1492.8	0.97
293.15 K, m1 = 0.6	1047.69	1493.4	0.95
293.15 K, m1 = 0.7	1055.7	1497.1	0.936
298.15 K, m1 = 0.2	1013.8	1500.6	0.873
298.15 K, m1 = 0.3	1022.08	1503.2	0.863
298.15 K, m1 = 0.4	1030.17	1504	0.86
298.15 K, m1 = 0.5	1038.34	1506.5	0.857
298.15 K, m1 = 0.6	1046.11	1506	0.846
298.15 K, m1 = 0.7	1054.22	1509.1	0.832
303.15 K, m1 = 0.2	1012.3	1512.5	0.782
303.15 K, m1 = 0.3	1020.51	1514.2	0.772
303.15 K, m1 = 0.4	1028.56	1516	0.769
303.15 K, m1 = 0.5	1036.79	1517.2	0.765
303.15 K, m1 = 0.6	1044.6	1517.9	0.76
303.15 K, m1 = 0.7	1052.52	1520.4	0.74
308.15 K, m1 = 0.2	1010.63	1523.4	0.698
308.15 K, m1 = 0.3	1018.9	1524.6	0.688
308.15 K, m1 = 0.4	1026.73	1526.4	0.682
308.15 K, m1 = 0.5	1035	1527.7	0.678
308.15 K, m1 = 0.6	1042.99	1527.8	0.674
308.15 K, m1 = 0.7	1050.61	1529.6	0.664
313.15 K, m1 = 0.2	1008.74	1532.3	0.622
313.15 K, m1 = 0.3	1016.99	1532.8	0.612
313.15 K, m1 = 0.4	1024.78	1534.7	0.608
313.15 K, m1 = 0.5	1032.88	1535.5	0.605
313.15 K, m1 = 0.6	1041.01	1535.9	0.602
313.15 K, m1 = 0.7	1048.62	1538.1	0.595

Reference: the NIST ThermoML archive (doi:10.1021/je1012789)
